# From PMC11271967, “An inhibitory mechanism of AasS, an exogenous fatty acid scavenger: Implications for re-sensitization of FAS II antimicrobials” (PLOS Pathogens, 2024)
# Where “and” joins values, the source holds several entries; their conditions need not be identical. Identical values can stand only once. Like-named read-outs stand apart in the source and are kept apart here.
# Legend:
# AasS [1] = test: In vitro enzymatic activity of AasS (acyl-ACP formation, conformationally-sensitive urea PAGE, ImageJ semi-quantitation); format: biochemical, Vibrio harveyi
# AasS [2] = molecular target: T1, AasS (Vibrio harveyi, UniProt Q00IB3); test: Isothermal titration calorimetry (ITC), wild-type AasS; format: binding; details: AasS ~40 μM saturated with ATP 120 μM
# T1 sequence (Q00IB3 entry or part of it): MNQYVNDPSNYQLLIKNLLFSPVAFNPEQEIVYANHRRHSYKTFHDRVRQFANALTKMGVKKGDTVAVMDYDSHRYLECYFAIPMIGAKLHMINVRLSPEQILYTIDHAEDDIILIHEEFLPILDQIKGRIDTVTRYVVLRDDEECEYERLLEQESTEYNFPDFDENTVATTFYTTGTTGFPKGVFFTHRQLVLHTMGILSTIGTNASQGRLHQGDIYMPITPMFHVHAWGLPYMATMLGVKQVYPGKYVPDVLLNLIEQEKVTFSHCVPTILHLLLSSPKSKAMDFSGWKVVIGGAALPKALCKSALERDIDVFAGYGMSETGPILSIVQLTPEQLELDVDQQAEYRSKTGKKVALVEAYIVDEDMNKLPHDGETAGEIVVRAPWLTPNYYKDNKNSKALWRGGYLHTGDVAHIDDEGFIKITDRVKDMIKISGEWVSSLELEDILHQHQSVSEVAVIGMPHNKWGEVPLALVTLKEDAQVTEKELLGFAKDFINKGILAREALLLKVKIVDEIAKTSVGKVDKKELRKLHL
# Procedure: The assays of Isothermal titration calorimetry (ITC) were conducted to address the stoichiometry of AasS binding to its C10-AMS inhibitor and C10-AMP intermediate. Since both malic acid and pimelic acid are not substrates for AasS, the two dicarboxylic acids were assumed as negative controls in our ITC analysis. Using a micro-calorimeter (MicroCal PEAQ-ITC) as recently described for E-C7 with little change, totally 18 titrations (2 μl each at an internal of 2.5 min) proceeded in the cell at room temperature. Prior to the titration, AasS protein (~40 μM) was saturated with its ATP cofactor (120 μM) in the cell, and C10-AMS inhibitor (or C10) was kept at 600 μM in the syringe. The titration buffer was composed of 150 mM NaCl, 25 mM Tris-HCl (pH8.0), 2 mM DTT, and 3 mM MgCl2. One set of site model by the MicroCal PEAQ-ITC software enabled plotting the titration curves. Next, the stoichiometry (N) and dissociation constant (Kd) were calculated. It was given as an average ± standard deviation (SD) from three independent trials.
# [3] = test system: AasS-expressing E. coli ΔbioC strain; test: AasS-based bypass of biotin synthesis, bacterial viability on M9 agar; format: cell-based, Escherichia coli; details: M9 agar with E-C7 as sole carbon source; 0, 50, 100, 500 μM tested
# Description: Fig 4 Integrated evidence for the inhibition of AasS action with E-C7 fatty acid by C10-AMS compound. A. Schematic diagram of AasS-catalyzed ligation of E-C7 with holo-ACP recipient to produce E-C7-ACP. […] A representative photograph of three independent trials was given. C. Relatively-quantitative analysis (for the inhibitory efficacy of C10-AMS on AasS-catalyzed E-C7-ACP production. As for AasS reaction (panel B), unlike the three components that are at constant levels, namely (i) AasS (31.25 nM), (ii) E-C7 (600 μM), and (iii) ACP (3 μg), C10-AMS inhibitor was supplemented at varied ratio in relative to the AasS enzyme (ranging from 0:1, 25:1, 50:1, 100:1, 200:1, 300:1, 400:1, to 500:1). The ImageJ software was applied to measure the relative percentage (%) of E-C7 fatty acylation in each AasS reaction. The resultant graphs were plotted from three independent experiments, in which the output was expressed as means ± SD (standard deviations). D. Schematic diagram for C10-AMS inhibition of AasS-based bypass of biotin requirement by the E. coli ΔbioC biotin auxotroph on the non-permissive condition. […] Log-phase cultures in a series of 10-fold dilution (shown in panel on right hand), were spotted on the x-gal-containing M9 agar plates supplemented with C10-AMS inhibitor at varied levels (0, 50, 100, to 500 μM). The addition of x-gal substrate enabled the occurrence of blue colonies for better photographing, and viable colonies were highlighted with yellow arrows.
# Given that AasS ligates E-C7 fatty acid with holo-ACP, giving E-C7-ACP, an alternative precursor for bacterial biotin synthesis, plasmid-borne aasS expression in ΔbioC biotin auxotroph strain is assumed to overcome the requirement of the primary BioC step [58, 83]. Apart from its WT, three single mutants of AasS (D411A, R426A, and K432A) were examined in vivo, of which the compromised activity is presumably proportional to the varied viability of the ΔbioC reporter strains on the non-permissive M9 growth condition. To test its inhibitory effect, the C10-AMS inhibitor in a series of dilution was supplemented. […]
# AasS [4] = molecular target: T1, AasS; test: Microscale thermophoresis (MST), wild-type AasS; format: binding; details: MST
# Procedure: To validate poor binding of AasS(D411A) to C10 fatty acyl adenylate observed in our ITC assays, the relatively-more sensitive approach of microscale thermophoresis (MST) was additionally applied here as Jerabek-Willemsen et al. described with minor alteration. Using the Protein Labeling Kit (Protein Labeling Kit RED-NHS 2nd Generation, Nano Temper Technology), both the wild-type AasS and its D411A mutant were fluorescently labelled in the MST buffer (150 mM NaCl, 25 mM Tris-HCl, 3 mM MgCl2, 0.05% Tween-20, pH 8.0). The ligand C10-AMP used in MST assays was prepared by an equal mixture of C10 and ATP. In general, an NT.115 Monolith instrument (Nano Temper Technology, Germany) was integrated, of which the routine parameters included a RED/LED (20%) excitation power along with 60% laser power for excitation. Then, the protein samples were siphoned into MST Premium Coated capillaries for the determination of binding affinity at room temperature. The final concentrations of different AasS samples were 40 nM for WT, and 180 nM for D411A, respectively. The mixture of C10/ATP was diluted in a gradient (from 0.15 nM to 5.0 μM). Three independent MST experiments were conducted here. The dissociation constants (Kd) were calculated using the software MO. Affinity Analysis v2.3. Of note, this was largely dependent on the KD model with a 1:1 stoichiometry per binding partner.
structure (smiles),measurement,setting,value
CCCCCCCCCC(=O)NS(=O)(=O)OC[C@H]1O[C@@H](n2cnc3c(N)ncnc32)[C@H](O)[C@@H]1O [C10-AMS],"inhibition of C10 fatty acylation, Average (S1E Fig, second block; order of addition not printed)",AasS [1],64.1924% and 78.0145% and 84.8528% and 86.8699%
same,"inhibition of C10 fatty acylation, Average (S1E Fig, third block; order of addition not printed)",AasS [1],82.6351% and 89.1845% and 93.1119% and 91.664%
same,Ki,"AasS [1]; C10 substrate fixed at 80 μM, AasS 3 nM, semi-quantitative gel assay, read-out: inhibition constant (Ki) of C10-AMS vs AasS",~0.62 µM and 0.62 µM and ~0.6 µM
same,Ki,"AasS [1]; E-C7 600 μM, AasS 31.25 nM, read-out: Ki for E-C7 acyl substrate",~2.95 µM and 2.95 µM
same,Ki,"AasS [1]; condition 1#, C10 80 μM, AasS 3 nM, read-out: Ki, order-of-addition experiment",0.67 µM
same,Ki,"AasS [1]; condition 2#, C10 80 μM, AasS 3 nM, read-out: Ki, order-of-addition experiment",1.37 µM
same,stoichiometry (n),AasS [2],0.97±0.16
same,Kd,"AasS [2]; ligand 600 μM in syringe, room temperature, read-out: dissociation constant (Kd)",0.0141 ± 0.00382 µM
same,C10-AMS level that markedly impaired AasS-based bypass of biotin synthesis,[3],over 100 μM
same,"Average (DeltaFNorm), AasS(WT)",AasS [4]; Dose 1.52588e-10,0.4239
same,"Average (DeltaFNorm), AasS(WT)",AasS [4]; Dose 3.05176e-10,1.688
same,"Average (DeltaFNorm), AasS(WT)",AasS [4]; Dose 6.10352e-10,0.6276
same,"Average (DeltaFNorm), AasS(WT)",AasS [4]; Dose 1.2207e-9,-0.2133
same,"Average (DeltaFNorm), AasS(WT)",AasS [4]; Dose 2.44141e-9,-0.7539
same,"Average (DeltaFNorm), AasS(WT)",AasS [4]; Dose 4.88281e-9,-0.9203
same,"Average (DeltaFNorm), AasS(WT)",AasS [4]; Dose 9.76563e-9,-2.469
same,"Average (DeltaFNorm), AasS(WT)",AasS [4]; Dose 1.95313e-8,-0.4913
same,"Average (DeltaFNorm), AasS(WT)",AasS [4]; Dose 3.90625e-8,-0.5142
same,"Average (DeltaFNorm), AasS(WT)",AasS [4]; Dose 7.8125e-8,-1.198
same,"Average (DeltaFNorm), AasS(WT)",AasS [4]; Dose 1.5625e-7,-2.398
same,"Average (DeltaFNorm), AasS(WT)",AasS [4]; Dose 3.125e-7,-4.638
same,"Average (DeltaFNorm), AasS(WT)",AasS [4]; Dose 6.25e-7,-6.534
same,"Average (DeltaFNorm), AasS(WT)",AasS [4]; Dose 1.25e-6,-7.36
same,"Average (DeltaFNorm), AasS(WT)",AasS [4]; Dose 2.5e-6,-8.128
same,"Average (DeltaFNorm), AasS(WT)",AasS [4]; Dose 5e-6,-7.529
